How the values were obtained:
CCD 841 CoN cells [1] = assay: DNA synthesis, BrdU incorporation (Cell Proliferation ELISA); format: cell-based, human; details: 48 h
Protocol: CCD 841 CoN cells were grown in black 96-well plates at an initial cell density of 2 × 10^4 cells/cm^2 for 24 h under standard culture conditions. The cells were treated with ST (2.5, 5, 10, 20, and 40 μg/mL) and its esters ST-OA and ST-LA (10, 20, and 40 μg/mL) for 48 h. DNA synthesis was measured by incorporating thymidine analog 5-bromo-2′-deoxyuridine (BrdU) into newly synthesized DNA using the Cell Proliferation ELISA kit according to the protocol recommended by the manufacturer (Roche Diagnostics GmbH, Mannheim, Germany). Briefly, BrdU was added to the treated cells 24 h before the end of the exposure to the ST, ST-OA, and ST-LA (final BrdU concentration of 10 μM). After treatment, BrdU-labeled DNA was denatured (30 min, 20 °C). Then, BrdU was bonded with a peroxidase-conjugated anti-BrdU antibody (90 min, 20 °C) and reacted with the peroxidase substrate. The absorbance measurement was done with a stop solution (1 M H2SO4) at 450 nm with reference wavelength 690 nm using a Tecan M200 Infinite microplate reader.

[2] = Thermo-oxidative treatment at 180 °C for 8 h, degradation of the compound; format: physicochemical; details: heated at 180 °C for 8 h under oxygen atmosphere
Protocol: ST, ST-OA, and ST-LA (50 mg each) were placed separately in glass vials and heated at 180 °C for 8 h under an oxygen atmosphere. After thermo-oxidative treatment, the tested compounds were stored at − 20 °C until chemical and biological analyses. The non-heated and heated ST and its esters were analyzed to detect degradation products and oxyderivatives. Analytical methods were described in the article published previously.

CCD 841 CoN cells [3] = assay: MultiTox-Fluor Multiplex Cytotoxicity Assay (live and dead cell fluorescence); format: cell-based
Protocol: The normal human diploid CCD 841 CoN cell line (ATCC® CRL-1790™) isolated from colon mucosa was obtained from American Type Culture Collection (ATCC, Manassas, VA, USA). Cells were cultured in Dulbecco’s Modified Eagle’s Medium (DMEM, Sigma-Aldrich) supplemented with fetal bovine serum (FBS; Gibco BRL, Grand Island, NY, USA) to a final concentration of 10% and maintained at 37 °C in a humidified atmosphere with 5% CO2.
In the cytotoxicity experiments, CCD 841 CoN cells were seeded in 96-well plates at an initial density of 2.0 × 10^4 cells/cm^2 and incubated for 24 h. […] Control culture contained the vehicle at the amount corresponding to the sample analyzed.
The Multitox-Fluor Multiplex Cytotoxicity Assay (Promega GmbH, Mannheim, Germany) was applied to determine the relative number of live and dead cells in the CCD 841 CoN cell cultures treated with the analyzed compounds. The assay determined live- and dead-cell protease activities using two fluorogenic peptide substrates, cell-permeant (glycyl-phenylalanyl-amino fluorocoumarin; GF-AFC) and cell-impermeant (bis-alanyl-alanyl-phenylalanyl-rhodamine 110; bis-AAF-R110). After treatment, the cells were incubated with GF-AFC and bis-AAF-R110 substrates for 60 min at 37 °C. The live- and dead-cell proteases produced AFC and R110 products, measured using a Tecan M200 Infinite microplate reader (Tecan Group Ltd., Männedorf, Switzerland) at different excitation (400 nm and 485 nm) and emission (505 nm and 520 nm) spectra. The assay was conducted according to the manufacturer’s instructions.

CC[C@H](/C=C/[C@@H](C)[C@H]1CC[C@H]2[C@@H]3CC=C4C[C@@H](O)CC[C@]4(C)[C@H]3CC[C@]12C)C(C)C [ST, Stigmasterol]
decrease in DNA synthesis (BrdU incorporation) (CCD 841 CoN cells [1]; 5 μg/mL, P = 0.028): 10%
decrease in DNA synthesis (BrdU incorporation) (CCD 841 CoN cells [1]; 40 μg/mL): 61%
first dose that significantly inhibited DNA synthesis (CCD 841 CoN cells [1]): 5 µg/mL
Sterol moiety depletion (%) [2]: 80.4 ± 13.5%
decrease in the viable cell number (CCD 841 CoN cells [3]; 1 μg/mL, first cytotoxic effects): 10%
reduction in number of viable cells / relative cell viability (CCD 841 CoN cells [3]; 40 μg/mL, 48-h treatment): approximately 80%
concentration at which first cytotoxic effects were observed (CCD 841 CoN cells [3]; 48-h treatment): 1000 ng/mL
